Test results published in PubChem BioAssay AID1963852 (Molecular Pharmacology Branch, DTP, NCI, 2024).

System: 282377-053-R-J1-PDC complex spheroid viability
Assay: Anticancer human tumor 282377-053-R-J1-PDC patient-derived colon adenocarcinoma cell line growth inhibition [POLQ]
Conditions: for IC50: curve of first compound; for viability, T/C: stronger effect = lower value
Method in brief: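 PDC + HUVEC + MSC complex spheroids; POLQ inhibitors ± partner drugs; top conc. at/near clinical Cmax, else 10 microM (SN-38 1 microM), half-log dilutions; 37 degrees C, 5% CO2.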

[1] = second compound 0.0316 µM, first compound 0.0316 µM
[2] = second compound 0.0316 µM, first compound 0.1 µM
[3] = second compound 0.0316 µM, first compound 0.316 µM
[4] = second compound 0.0316 µM, first compound 1 µM
[5] = second compound 0.0316 µM, first compound 3.16 µM
[6] = second compound 0.0316 µM, first compound 10 µM
[7] = second compound 0.1 µM, first compound 0.0316 µM
[8] = second compound 0.1 µM, first compound 0.1 µM
[9] = second compound 0.1 µM, first compound 0.316 µM
[10] = second compound 0.1 µM, first compound 1 µM
[11] = second compound 0.1 µM, first compound 3.16 µM
[12] = second compound 0.1 µM, first compound 10 µM
[13] = second compound 0.316 µM, first compound 0.0316 µM
[14] = second compound 0.316 µM, first compound 0.1 µM
[15] = second compound 0.316 µM, first compound 0.316 µM
[16] = second compound 0.316 µM, first compound 1 µM
[17] = second compound 0.316 µM, first compound 3.16 µM
[18] = second compound 0.316 µM, first compound 10 µM
[19] = second compound 1 µM, first compound 0.0316 µM
[20] = second compound 1 µM, first compound 0.1 µM
[21] = second compound 1 µM, first compound 0.316 µM
[22] = second compound 1 µM, first compound 1 µM
[23] = second compound 1 µM, first compound 3.16 µM
[24] = second compound 1 µM, first compound 10 µM
[25] = second compound 3.16 µM, first compound 0.0316 µM
[26] = second compound 3.16 µM, first compound 0.1 µM
[27] = second compound 3.16 µM, first compound 0.316 µM
[28] = second compound 3.16 µM, first compound 1 µM
[29] = second compound 3.16 µM, first compound 3.16 µM
[30] = second compound 3.16 µM, first compound 10 µM
[31] = second compound 10 µM, first compound 0.0316 µM
[32] = second compound 10 µM, first compound 0.1 µM
[33] = second compound 10 µM, first compound 0.316 µM
[34] = second compound 10 µM, first compound 1 µM
[35] = second compound 10 µM, first compound 3.16 µM
[36] = second compound 10 µM, first compound 10 µM
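Further: spheroids exposed to compounds for seven days.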
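Wherever viability, T/C is given: 100% = DMSO vehicle control viability.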

Compound: Nc1ccn(C2OC(CO)C(O)C2(F)F)c(=O)n1 (stereo unspecified) + Cc1cccc(N(C)C(=O)C2C(O)CCN2c2nc(C)cc(C(F)(F)F)c2C#N)c1
- IC50 (second compound 0.0316 µM): 0.0981 µM
- IC50 (second compound 0.1 µM): 0.0957 µM
- IC50 (second compound 0.316 µM): 0.0947 µM
- IC50 (second compound 1 µM): 0.1 µM
- IC50 (second compound 3.16 µM): 0.115 µM
- IC50 (second compound 10 µM): 0.111 µM
- viability, T/C [1]: 84%
- viability, T/C [2]: 45.3%
- viability, T/C [3]: 35.2%
- viability, T/C [4]: 23.9%
- viability, T/C [5]: 17.8%
- viability, T/C [6]: 13.6%
- viability, T/C [7]: 101%
- viability, T/C [8]: 46.8%
- viability, T/C [9]: 30.3%
- viability, T/C [10]: 23.1%
- viability, T/C [11]: 23.2%
- viability, T/C [12]: 16%
- viability, T/C [13]: 81.7%
- viability, T/C [14]: 47%
- viability, T/C [15]: 31.9%
- viability, T/C [16]: 25.9%
- viability, T/C [17]: 18.2%
- viability, T/C [18]: 16.6%
- viability, T/C [19]: 84.5%
- viability, T/C [20]: 45.5%
- viability, T/C [21]: 32.7%
- viability, T/C [22]: 30.4%
- viability, T/C [23]: 21.7%
- viability, T/C [24]: 10.5%
- viability, T/C [25]: 92.5%
- viability, T/C [26]: 50.9%
- viability, T/C [27]: 31.8%
- viability, T/C [28]: 30.2%
- viability, T/C [29]: 24.6%
- viability, T/C [30]: 13.9%
- viability, T/C [31]: 74.9%
- viability, T/C [32]: 48.6%
- viability, T/C [33]: 38.2%
- viability, T/C [34]: 25%
- viability, T/C [35]: 20.8%
- viability, T/C [36]: 12.3%

Compound: COc1cc2cc(C(=O)CCC(=O)O)sc2cc1OC + Cc1cccc(N(C)C(=O)C2C(O)CCN2c2nc(C)cc(C(F)(F)F)c2C#N)c1
- IC50 (second compound 0.0316 µM): > 10 µM
- IC50 (second compound 0.1 µM): > 10 µM
- IC50 (second compound 0.316 µM): > 10 µM
- IC50 (second compound 1 µM): > 10 µM
- IC50 (second compound 3.16 µM): > 10 µM
- IC50 (second compound 10 µM): > 10 µM
- viability, T/C [1]: 106%
- viability, T/C [2]: 112%
- viability, T/C [3]: 101%
- viability, T/C [4]: 106%
- viability, T/C [5]: 109%
- viability, T/C [6]: 104%
- viability, T/C [7]: 112%
- viability, T/C [8]: 107%
- viability, T/C [9]: 102%
- viability, T/C [10]: 95.8%
- viability, T/C [11]: 115%
- viability, T/C [12]: 89.4%
- viability, T/C [13]: 119%
- viability, T/C [14]: 107%
- viability, T/C [15]: 113%
- viability, T/C [16]: 97%
- viability, T/C [17]: 107%
- viability, T/C [18]: 95.1%
- viability, T/C [19]: 116%
- viability, T/C [20]: 103%
- viability, T/C [21]: 107%
- viability, T/C [22]: 107%
- viability, T/C [23]: 103%
- viability, T/C [24]: 105%
- viability, T/C [25]: 106%
- viability, T/C [26]: 106%
- viability, T/C [27]: 103%
- viability, T/C [28]: 108%
- viability, T/C [29]: 113%
- viability, T/C [30]: 108%
- viability, T/C [31]: 107%
- viability, T/C [32]: 112%
- viability, T/C [33]: 117%
- viability, T/C [34]: 100%
- viability, T/C [35]: 122%
- viability, T/C [36]: 109%

Compound: CNCc1ccc(-c2[nH]c3cc(F)cc4c3c2CCNC4=O)cc1 + Cc1cccc(N(C)C(=O)C2C(O)CCN2c2nc(C)cc(C(F)(F)F)c2C#N)c1
- IC50 (second compound 0.0316 µM): > 10 µM
- IC50 (second compound 0.1 µM): > 10 µM
- IC50 (second compound 0.316 µM): > 10 µM
- IC50 (second compound 1 µM): > 10 µM
- IC50 (second compound 3.16 µM): > 10 µM
- IC50 (second compound 10 µM): > 10 µM
- viability, T/C [1]: 122%
- viability, T/C [2]: 89.9%
- viability, T/C [3]: 135%
- viability, T/C [4]: 113%
- viability, T/C [5]: 122%
- viability, T/C [6]: 144%
- viability, T/C [7]: 122%
- viability, T/C [8]: 94.3%
- viability, T/C [9]: 98.2%
- viability, T/C [10]: 93%
- viability, T/C [11]: 134%
- viability, T/C [12]: 140%
- viability, T/C [13]: 99.1%
- viability, T/C [14]: 105%
- viability, T/C [15]: 87.4%
- viability, T/C [16]: 98.1%
- viability, T/C [17]: 113%
- viability, T/C [18]: 124%
- viability, T/C [19]: 117%
- viability, T/C [20]: 98.7%
- viability, T/C [21]: 105%
- viability, T/C [22]: 104%
- viability, T/C [23]: 138%
- viability, T/C [24]: 129%
- viability, T/C [25]: 85.9%
- viability, T/C [26]: 114%
- viability, T/C [27]: 80.2%
- viability, T/C [28]: 85.1%
- viability, T/C [29]: 117%
- viability, T/C [30]: 150%
- viability, T/C [31]: 104%
- viability, T/C [32]: 98.4%
- viability, T/C [33]: 104%
- viability, T/C [34]: 103%
- viability, T/C [35]: 103%
- viability, T/C [36]: 138%
